{"source": "patent US7371730B2", "about": "“Crystals of glucopyranosyloxybenzyl benzene derivative” (Kissei Pharmaceutical Co., Ltd., priority 2002, dated 2008)", "assay": "Stability test (storage; HPLC residual percentage and X-ray powder diffraction)", "assay_type": "physicochemical", "conditions": "storage 40° C./75% RH, 2 months, stopper tightly, and 60° C.", "procedure": "Stability tests were carried out under the following conditions for crystalline forms α and β. Residual percentages of test substances were determined by HPLC, and changes in crystalline form were examined by X-ray powder diffraction analysis.\n• detection; 225 nm • column; Inertsil ODS-3 • column temperature; 30° C. • mobile phase; 0.02 mol/L phosphate buffer (pH 3.0): acetonitrile=58:42→30:70 • flow rate; 1.0 mL/min. Storage conditions: • 1) 40° C./75% RH, 2 months, stopper tightly • 2) 60° C., 2 months, stopper tightly", "data": [{"smiles": "CCOC(=O)OC[C@H]1O[C@@H](Oc2ccccc2Cc2ccc(OC)cc2)[C@H](O)[C@@H](O)[C@@H]1O", "note": "[crystalline form α, 2-(4-methoxybenzyl)phenyl 6-O-ethoxycarbonyl-β-D-glucopyranoside]", "values": [{"measurement": "changes in crystalline form (X-ray powder diffraction analysis)", "result": "no change"}, {"measurement": "residual percentage of test substance (HPLC)", "result": "no change"}]}]}
